In brackets after ≈: the same amount, converted by molar mass. Entries after “also recorded” stand apart in the source; their conditions may differ.
Assays:
[1] = tested on: caffeine-induced wakefulness mice; experiment: Caffeine-induced wakefulness mouse model: sleep latency, sleep duration, number falling asleep; format: in vivo
Protocol: Animals and Experimental design: Seven male BALB/c mice per treatment arm (age: 8 weeks, weight: […]) were housed in a controlled environment with a 12:12-h light-dark cycle at 22° C. and were provided with mice chow and water ad libitum. All experiments were conducted under the National Institutes of Health's Guidelines for the Care and Use of Laboratory Animals and approved by the Ethics Committee of the Medipol University.
Drugs and materials: Study product was provided by Nutrition21 LLC (Mg-Theanate #1=lot AA209-122-20, Mg-Theanate #2=lot BLS-DN 13). […] The concentration of each drug solution was adjusted so that the volume injected was constant at 1.0 ml/kg BW. All drug solutions were prepared fresh daily, and were administered intraperitoneally (i.p.). […]

Solubility in water = format: physicochemical
[2] = tested on: Bax, Bcl-2, Caspase-3, eNOS, iNOS; experiment: Western blot of brain cell survival indicators in caffeine-induced wakefulness mice; details: caffeine-induced wake mouse; result in words; listed as magnesium di-L-theanate
Storage stability = format: physicochemical; details: temperature range, low relative humidity; result in words; listed as Magnesium di-L-theanate compositions
[3] = Observations after administration in the animal studies of Example 5 (absorption, side effects); format: in vivo, mice
Text: Neither component in magnesium […] compositions of the invention (i.e., magnesium or L-theanine) has been reported to cause addiction.

[4] = tested on: brain serotonin, dopamine and melatonin; experiment: Brain neurotransmitter levels by ELISA in caffeine-induced wakefulness mice; format: in vivo; details: caffeine-induced wake mouse, result in words
MDA, SOD, CAT, GSHPx = experiment: Brain antioxidant status in caffeine-induced wakefulness mice; format: in vivo; details: caffeine-induced wake mouse, result in words
Protocol: Animals were anesthetized with urethane ([…], i.p., Sigma U2500). Body temperature was maintained between 36.5 and 37° C. with homeothermic blanket. Mice were stabilized under a stereotaxic frame (World Precision Instruments, Berlin; Germany) and an incision was made on the skin along the anterior/posterior line of the skull. The left […] was removed gently with a dental drill (Marothon-3; Korea). Two Ag-AgCl sphere electrodes were placed over the left hemisphere with the reference electrode attached on the pinna. […] Brains were rapidly removed, frozen on dry ice and stored at -80° C. until analyses could be performed. Biochemical and Oxidative Stress Markers-Serum melatonin, serotonin, and dopamine were measured using ELISA kits. Brain levels of malondialdehyde (MDA) were measured by HPLC. Brain activities of superoxide dismutase (SOD), catalase (CAT) and glutathione peroxidase (GSHPx) were measured using ELISA kits for each analyte.

[5] = tested on: brain waves (spike amplitude / spike frequency); experiment: Electrocorticography (ECoG) of brain electrical activity in caffeine-induced wakefulness mice; format: in vivo; details: caffeine-induced wake mouse, electrical activity over 120 minutes, result in words
Protocol: Animals were anesthetized with urethane ([…], i.p., Sigma U2500). Body temperature was maintained between 36.5 and 37° C. with homeothermic blanket. Mice were stabilized under a stereotaxic frame (World Precision Instruments, Berlin; Germany) and an incision was made on the skin along the anterior/posterior line of the skull. The left […] was removed gently with a dental drill (Marothon-3; Korea). Two Ag—AgCl sphere electrodes were placed over the left hemisphere with the reference electrode attached on the pinna.
Brains were rapidly removed, frozen on dry ice and stored at −80° C. until analyses could be performed.

[6] = tested on: pentobarbital-induced sleep; experiment: Pentobarbital-induced sleep test mouse model; format: in vivo, mice; details: for Duration of sleep / Sleep latency period: pentobarbital 42 mg/kg, test article 20 mg theanine/kg per os 45 min before
Protocol: Subsequently, pentobarbital was administered intraperitoneally to induce a hypnotic state that promoted sleep. The effects on sleep of the test agents were monitored.
Pentobarbital-induced sleep was performed according to published methods with slight modifications. Mice were fasted for 24 h prior to the experiment. Each test article was dissolved or suspended in physiological saline and then was administered per os. The groups were administered doses of 20 mg/kg theanine, Mg-theanate #1 (20 mg theanine/kg), and Mg-theanate #2 (20 mg theanine/kg), respectively. Forty-five minutes later, a hypnotic dose of pentobarbital (42 mg/kg) was injected into the left side of the abdomen. After injection, the mice were placed in individual cages and subjected to measurements of sleep latency and duration. Sleep latency was defined as the period between pentobarbital injection and the loss of righting reflex (sleep onset), and sleep duration denoted the time elapsed between loss of the righting reflex and recovery.
Statistical Analyses—Data are shown as mean±SEM. Sample size was calculated based on a power of 85% and a p-value of 0.05. Given that assumption, a sample size of seven per treatment was calculated. The data were analyzed using the GLM procedure of SAS (SAS Institute: SAS User's Guide: Statistics). The treatments were compared using ANOVA and Student's unpaired t-test; P<0.05 was considered statistically significant.

[7] = tested on: GABAA-R2, GABAB-R1, GABAB-R2, 5-HT1A, GluA1, GluN1, GluN2A; experiment: Western blot of GABA and other neurotransmitter receptors in caffeine-induced wakefulness mice; details: caffeine-induced wake mouse; result in words; listed as magnesium di-L-theanate compositions
[8] = caffeine-induced awake mouse model, result in words
[9] = caffeine-induced wake mouse, caffeine alone or + test article (20 mg theanine/kg)
[10] = listed as magnesium di-L-theanate compositions
[11] = result in words, listed as magnesium di-L-theanate composition
[12] = result in words, listed as magnesium di-L-theanate compositions

With `CCNC(=O)CCC(N)C(=O)O` [Mg Theanate Composition, magnesium di-L-theanate] the “Time after administration at which beneficial enhancement of sleep properties was exhibited” value ([1]; as early as) was “about 30 minutes”, the “Number of animals falling asleep as compared to L-theanine-treated animals” value [1, 8] was “significant increase” and the “Sleep duration as compared to L-theanine itself” value [1, 8] was “significant lengthening and normalization”. For the same compound, the “Sleep latency period as compared to L-theanine itself” value [1, 8] was “significant decrease”, the “Number of animals falling asleep (share of the group that fell asleep)” value [1, 9] was “+ Mg Theanate Composition: 70% of the group fell asleep” and the Sleep duration period [1, 9] was “+ Mg Theanate Composition: The sleep duration period of about 50 minutes was greatly”. The Sleep latency period [1, 9] was “slightly more than 1 minute, a significantly shorter period than found in caffeine-treated minutes”, the solubility (Solubility in water) was about 650 mg/mL (≈ 3730 mM) and the “Brain cell survival (Bax, Bcl-2, Caspase-3, eNOS, and iNOS, indicators of cell damage)” value [2] was “significant normalization”. For the same compound, the Storage stability (Storage stability) was “stable during storage under conditions having temperatures ranging from −80 °C to +120 °C at low relative humidity; also recorded: greatest at temperatures from −80 °C to +60 °C at low relative humidity”, the “Adverse effects on activities during or immediately after wakefulness” value [3] was “No adverse effects were observed” and the “Side effects during or after treatment” value [3] was “No side effects were observed”. The “Absorption and distribution following administration” value ([3]; result in words) was “rapidly absorbed and distributed to the brain”, the “Neurotransmitter levels (brain serotonin, dopamine, and melatonin)” value [4] was “animals, levels of all three neurotransmitters were more significantly restored to control” and the “Neurotransmitter levels (brain serotonin, dopamine, and melatonin)” value [4, 10] was “significant restoration”. For the same compound, the “Levels of protective enzymes (SOD, CAT, GSHPx)” value (MDA, SOD, CAT, GSHPx) was “protective enzymes were decreased, the adverse changes were not as great as those shown by”, the “Level of MDA (indicator of oxidative stress)” value (MDA, SOD, CAT, GSHPx; [10]) was “decrease in oxidative stress” and the “Levels of protective enzymes (SOD, CAT, GSHPx)” value (MDA, SOD, CAT, GSHPx; [10]) was “restoration of brain anti-oxidant status”. For the same compound, the “Amplitude of brain waves” value [5] was “increased significantly and was maintained throughout the 120 minute study period. Spike”, the “Spike frequency of electrical activity in the brain” value [5] was “frequency was significantly reduced and comparable to caffeine/theanine-treated animals” and the “Amplitude of brain waves” value [5, 10] was “significant increase”. The “Spike frequency of electrical activity in the brain” value [5, 10] was “significant reduction”, the “Animals that fell asleep (10-minute period following pentobarbital administration)” value ([6]; 20 mg theanine/kg per os) was “over 50%” and the “Likelihood to fall asleep within the 10 minute limit as compared to theanine” value ([6]; 20 mg theanine/kg per os, result in words) was “significantly more likely to fall asleep”. The Duration of sleep [6, 11] was “significantly increased”, the Sleep latency period [6, 11] was “significantly reduced” and the Duration of sleep [6, 12] was “significantly and more effectively increased”. For the same compound, the Sleep latency period [6, 12] was “significantly and more effectively decreased” and the “GABA and other neurotransmitter receptors (receptor levels)” value [7] was “significant diminution in the caffeine-related reduction”.
